The numbers were not newly measured in publication PMC4621754, “Parasitic diarrheal disease: drug development and targets” (Frontiers in Microbiology, 2015), which cites them from elsewhere.

Read-outs that look alike come from different tables or passages of the source.

As a reminder, the IC50 is the concentration that inhibits the measured activity by half.

The subject of one data set is E. histolytica PPi-PFK. Also on record: method as in Reeves et al., 1974, 1976. To be noted: ref Reeves et al., 1974, 1976.
The next data set relates to tubulin. Details: method as in Valdez et al., 2002. The following applies: ref Valdez et al., 2002.
In data set [1] the test system is Encephalitozoon spp. and E. bieneusi. Details: method as in Bacchi and Weiss, 2004. To be noted: in vitro; ref Bacchi and Weiss, 2004.
Data set [2] concerns methionine aminopeptidase type 2(MetAP2). Details: method as in Molina et al., 2002. The following applies: E. cuniculi; non-competitive, irreversible; ref Molina et al., 2002.
In a further data set the test system is I. belli. To be noted: for cure of I. belli induced diarrhea: ref Trier et al., 1974, Syrkis et al., 1975, Butler and De Boer, 1981, Weiss et al.
Data set [3] has as its system B. hominis. Details: method as in Nasirudeen et al., 2004. To be noted: ref Nasirudeen et al., 2004.
A further data set deals with human cells. The following applies: ref Bendesky et al., 2002.
The test system of data set [4] is B. hominis. Details: method as in Van Hellemond et al., 2013. The following applies: in comparison to metronidazole; ref Van Hellemond et al., 2013.
Data set [5] deals with E. intestinalis. Also on record: method as in Menotti et al., 2005; Pozio and Morales, 2005. To be noted: tissue culture, ref Menotti et al., 2005, Pozio and Morales.
The test system of data set [6] is E. intestinalis. Details: method as in Didier et al., 2006. To be noted: in vitro; ref Didier et al., 2006.
The subject of a further data set is giardiasis. Details: method as in Galkin et al., 2014. The following applies: mice; ref Galkin et al., 2014.
The test system of another data set is Carbamate kinase. Also on record: method as in Galkin et al., 2014. The following applies: ref Galkin et al., 2014.
On the set-up of data set [7]: method as in Diaz et al., 2003. To be noted: intestinal infection caused by C. cayetanensis; ref Diaz et al., 2003.
For the next data set, the system named is cryptosporidiosis. Details: method as in Mead, 2002; Gargala, 2008. The following applies: ref Mead, 2002, Gargala, 2008.
A further data set relates to microsporidia. Details: method as in Didier et al., 2005. The following applies: ref Didier et al., 2005.
The subject of data set [8] is E. intestinalis. The following applies: ref John et al., 2005.
In data set [9] the test system is Acyl-coenzyme-A synthetases. Details: method as in Guo et al., 2014. The following applies: cryptosporidial infection in mice; ref Guo et al., 2014.

Take `O=P(O)(O)C(O)(Cn1ccnc1)P(=O)(O)O` [CGP42446A]: in the data set on E. histolytica PPi-PFK, the “inhibition of PFK in E. histolytica” value is “good inhibitors”.
Turning to `S=c1[nH]c2ccc(Cl)cc2[nH]1` [Compound 36, 5(6)-chloro-1H-benzimidazole-2-(3H)-thione], the tubulin polymerization result with tubulin is “inhibits tubulin polymerization”. Also, the IC50 in the data set with E. histolytica (ref Valdez et al., 2002) is 5 nM; in the data set with G. lamblia (in vitro, ref Valdez et al., 2002) it was 5 nM.
Regarding `CC(=O)Oc1ccccc1C(=O)Nc1nc2ccc([N+](=O)[O-])cc2s1` [Compound 39, 2-{[(6-Nitro-1,3-benzothiazol-2-yl)amino]carbonyl}phenyl acetate], the IC50 in the data set on G. intestinalis (in vitro, ref Navarrete-Vazquez et al., 2011) is 3520 nM; with E. histolytica (ref Navarrete-Vazquez et al., 2011), 297 nM.
Turning to `COC(=O)Nc1ncc([N+](=O)[O-])s1` [Compound 68, methyl 5-nitro-1,3-thiazol-2-ylcarbamate], the IC50 in the data set with G. intestinalis (ref Nava-Zuazo et al., 2014) was 10 nM.
For the compound `CCOC(=O)C(=O)Nc1ncc([N+](=O)[O-])s1` [Compound 69, ethyl [(5-nitro-1,3-thiazol-2-yl)amino](oxo)acetate], in the data set with G. intestinalis (ref Nava-Zuazo et al., 2014), the IC50 is 6410 nM.
With `CO[C@@H]1[C@H](OC(=O)/C=C/C=C/C=C/C=C/C(=O)O)CC[C@]2(CO2)[C@H]1[C@@]1(C)O[C@@H]1CC=C(C)C` [Fumagillin], in [1], the “activity against Encephalitozoon spp. and E. bieneusi” value is reported as “potent”. For the same compound, the MetAP2 inhibition result in data set [2] is recorded as “potent inhibitor”.
As for `Cc1ncc([N+](=O)[O-])n1CCO` [Metronidazole], in the data set with I. belli (1988), the “cure of I. belli induced diarrhea” value is reported as “cure the I. belli induced diarrhea but to lesser extent”. Besides, the programmed cell death result in the data set with B. hominis [3] is recorded as “induces programmed cell death”. In the data set with human cells, the genotoxicity result is given as “genotoxic”.
As for `NC[C@@H]1O[C@H](O[C@H]2[C@@H](O)[C@H](O[C@@H]3[C@@H](O)[C@H](N)C[C@H](N)[C@H]3O[C@H]3O[C@H](CO)[C@@H](O)[C@H](O)[C@H]3N)O[C@@H]2CO)[C@H](N)[C@@H](O)[C@@H]1O` [Paramomycin, paromomycin], the “performance against B. hominis infections” value in the data set with B. hominis [4] is listed as “superior performance in comparison to metronidazole”.
With `CC(C)c1nc(CN(C)C(=O)N[C@H](C(=O)N[C@@H](Cc2ccccc2)C[C@H](O)[C@H](Cc2ccccc2)NC(=O)OCc2cncs2)C(C)C)cs1` [Ritonavir], in the data set on E. intestinalis [5], the “growth of E. intestinalis” value is on record as “inhibited the growth”.
`CO[C@@H]1[C@H](OC(=O)NC(=O)CCl)CC[C@]2(CO2)[C@H]1[C@@]1(C)O[C@@H]1CC=C(C)C` [TNP-470]: in the data set with E. intestinalis [6], the “inhibition of E. intestinalis replication” value is “more than 70%”.
As for `CCN(CC)C(=S)SSC(=S)N(CC)CC` [disulfiram], in the data set on giardiasis, the cure of giardiasis entry was “cure of giardiasis in mice”. The carbamate kinase inhibition result with Carbamate kinase is reported as “inhibits this enzyme”. Besides, in the data set on G. lamblia (ref Galkin et al., 2014), the effect on trophozoites entry is “kills the trophozoites”.
For the compound `CC(C)(C)NC(=O)[C@@H]1CN(Cc2cccnc2)CCN1C[C@@H](O)C[C@@H](Cc1ccccc1)C(=O)N[C@H]1c2ccccc2C[C@H]1O` [indinavir], the “growth of E. intestinalis” value in the data set with E. intestinalis [5] is recorded as “inhibited the growth”.
For the compound `CC(=O)Oc1ccccc1C(=O)Nc1ncc([N+](=O)[O-])s1` [nitazoxanide], the side effects result in [7] was “no severe side effects”. The efficacy in cryptosporidiosis result with cryptosporidiosis (immunocompetent patients) is “effective”; in the data set with cryptosporidiosis (immunocompromised patients), “ineffective”.
On to `CCn1cc(C(=O)O)c(=O)c2cc(F)c(N3CCNCC3)cc21` [norfloxacin], for which, in the data set with microsporidia, the antimicrosporidial activity result is “more than gatifloxacin (6), lomefloxacin (7), moxifloxacin (8), and nalidixic acid (9)”.
For the compound `CC1COc2c(N3CCN(C)CC3)c(F)cc3c(=O)c(C(=O)O)cn1c23` (stereo not drawn) [ofloxacin], the antimicrosporidial activity result in the data set with microsporidia was “more than gatifloxacin (6), lomefloxacin (7), moxifloxacin (8), and nalidixic acid (9)”.
On to `CO[C@@H]1C(=O)CC[C@]2(CO2)[C@@]1(O)[C@@]1(C)O[C@@H]1CC=C(C)C` [ovalicin], for which the “inhibition of E. intestinalis replication” value in the data set with E. intestinalis [6] is recorded as “more than 70%”.
Turning to `O=[O+][O-]` [ozone], in the data set on E. intestinalis [8], the “killing of E. intestinalis” value is reported as “kills”.
As to `CCN(CC)CCCC(C)Nc1c2ccc(Cl)cc2nc2ccc(OC)cc12` (stereo not drawn) [quinacrine], the “cure of I. belli induced diarrhea” value in the data set with I. belli (1988) was “cure the I. belli induced diarrhea but to lesser extent”.
In the case of `CC[C@H]1OC(=O)[C@H](C)[C@@H](O[C@H]2C[C@@](C)(OC)[C@@H](O)[C@H](C)O2)[C@H](C)[C@@H](O[C@@H]2O[C@H](C)C[C@H](N(C)C)[C@H]2O)[C@](C)(O)C[C@@H](C)/C(=N\OCOCCOC)[C@H](C)[C@@H](O)[C@]1(C)O` [roxithromycin], the “efficacy in chronic I. belli induced diarrhea” value in the data set on I. belli (when TMP-SMX or pyrimethamine treatments become inadequate, ref Musey et al., 1988) was “effective”.
With `Nc1ccc(S(=O)(=O)Nc2ncccn2)cc1` [sulfadiazine], the “cure of diarrheal disease caused by I. belli” value in the data set on I. belli (ref Ferguson et al., 1980, Ebrahimzadeh and Bottone, 1996) is reported as “cure the diarrheal disease”.
Consider `CCS(=O)(=O)CCn1c([N+](=O)[O-])cnc1C` [tinidazole], for which, in the data set with I. belli (1988), the “cure of I. belli induced diarrhea” value was “cure the I. belli induced diarrhea but to lesser extent”.
`CCC/C=C/C/C=C/C=C/C=N/NN=O` [triacsin C]: the “inhibition of acyl-coenzyme-A synthetases” value in data set [9] is on record as “inhibited”.
For sirimamycin, the “efficacy in I. belli intestinal infection” value in the data set on I. belli (when pyrimethamine-sulfadoxine fails, AIDS patients, ref Ferguson et al., 1980) is on record as “effective”.
